The text below walks through data of article PMC5037861 (BMC Research Notes, 2016).

For test [1], the target named is T1, endogenous B2R (Homo sapiens, UniProt P30411).
T1 sequence (P30411 1-391): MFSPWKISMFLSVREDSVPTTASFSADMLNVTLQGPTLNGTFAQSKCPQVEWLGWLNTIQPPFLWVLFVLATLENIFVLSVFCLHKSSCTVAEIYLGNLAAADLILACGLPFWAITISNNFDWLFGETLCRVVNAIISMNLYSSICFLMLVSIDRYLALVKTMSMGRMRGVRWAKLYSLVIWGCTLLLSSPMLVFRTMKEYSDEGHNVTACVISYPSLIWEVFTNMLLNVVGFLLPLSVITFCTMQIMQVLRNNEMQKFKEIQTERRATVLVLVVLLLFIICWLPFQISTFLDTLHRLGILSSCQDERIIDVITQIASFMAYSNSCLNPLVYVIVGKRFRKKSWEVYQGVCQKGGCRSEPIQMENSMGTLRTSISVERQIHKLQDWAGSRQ
Details: The human umbilical vein is a contractile bioassay for the endogenous B2R; from tissue; host or cells: human isolated umbilical vein (A2). The settings on record: cited from earlier work; for pA2: antagonism of BK-induced contraction.

Test [2] has as its target T2, human B2R (Homo sapiens, UniProt P30411).
T2 construct: expressed in transfected cells; host or cells: HEK 293a
T2 sequence (P30411 1-391): T1 sequence (P30411 1-391)
Kind of test: Competition of [3H]BK (3 nM) binding to HEK 293a cells stably expressing myc-tagged human B2R. The settings on record: from binding competition IC50 values.
Description: Values are the means ± SEM. of the number of duplicate determinations indicated by n. Average specific binding without competitor (100 %) averaged 133.8 fmol/well.

Test [3] concerns the target T1, endogenous B2R. Description: IVIS infrared fluorescence imaging of slices of human umbilical cord. As to conditions: up to 250 nM, data not shown. Details: The human umbilical vein is a contractile bioassay for the endogenous B2R; from tissue; host or cells: human isolated umbilical vein (A2); slices of human umbilical cord (A8).
In test [4] the test system is T3, human myc-tagged B2Rs.
T3 construct: expressed in transfected cells; host or cells: HEK 293a
Kind of test: Cytofluorometry of detached HEK 293a cells stably expressing human myc-tagged B2Rs. It counts as cell-based. As for the experimental part:
A subclone of HEK 293 cells, called HEK 293a, originally obtained from Sigma-Aldrich was used in these experiments, either as a non-transfected cell type or as one stably expressing myc-tagged human B2Rs. These cells were grown in Dulbecco’s modified Eagle’s medium supplemented with 10 % fetal bovine serum, 1 % L-glutamine, and 1 % penicillin–streptomycin stock solutions (100×). Cells were detached using the protease-free Cell Dissociation Buffer (Invitrogen), incubated in D-MEM without serum at 37 °C for 30 min under agitation in the presence of a Cy7-conjugated ligands and other drugs, rapidly centrifuged (30 s, 11,000g) and resuspended in phosphate buffered saline. Then, the fluorescence of the cell suspensions was assessed using the BD SORP LSR II cell analyzer for the uptake of the as a function of stimulation and transgene expression. The cytofluorometry results were analyzed using the BD FACS DIVA software.

Test [5] deals with T4, rabbit B2R-GFP.
T4 construct: expressed in transfected cells; host or cells: HEK 293
Kind of test: Confocal microscopy of HEK 293 cells stably expressing B2R-GFP. Format: cell-based. The settings on record: for infrared labeling of cells: followed by rinsing.

Test [6] addresses T2, human B2R. Description: IVIS infrared fluorescence imaging of cell wells, HEK 293a cells expressing human myc-B2R. Format: cell-based. The settings on record: 1–10 nM, 30 min, 37 °C. The text has this:
(§1) The apparatus was set in fluorescence mode with filters at 675 nm (excitation) and 831 nm (emission), medium binning and 60 s exposure time. This experiment exploited HEK 293a cells grown in 24-well plates that stably expressed either human or rat B2R sequences N-terminally tagged with the myc epitope. Expression of these receptors as a function of pharmacologic treatment was controlled in separate plates of cells that were not fixed or permeabilized using the binding of anti-myc monoclonal antibody (clone 4A6, Millipore, dilution 1:1000) added along goat horseradish peroxidase-conjugated anti-mouse IgG antibodies (Santa Cruz, dilution 1:1000). […] The resulting blue precipitate was photographed at the macroscopic scale.

For test [7], the system named is T5, β2-adrenoceptor-GFP Topaz fusion protein.
T5 construct: expressed in transfected cells; host or cells: HEK 293 (transient, polyethylenimine); vector a gift from Prof; Michel Bouvier
Description: Confocal microscopy of HEK 293 cells transiently expressing β2-adrenoceptor-GFP Topaz (specificity control). Format: cell-based. The settings on record: for labeling of cells expressing β2-adrenoceptor-GFP Topaz: B-10665 10 nM, B-10666 100 nM, 30 min; for β2-adrenoceptor-GFP endocytosis: isoproterenol 100 nM 30 min, propranolol 1 μM pretreatment.

Test [8] has as its system T6, rat B2R.
T6 construct: expressed in transfected cells; host or cells: HEK 293a
Kind of test: IVIS infrared fluorescence imaging of cell wells, HEK 293a cells expressing rat myc-B2R. The settings on record: 1–10 nM, 30 min, 37 °C. It counts as cell-based.
Description: as §1

In test [9] the target is T1, endogenous B2R. Description: Human isolated umbilical vein contractility assay. Details: The human umbilical vein is a contractile bioassay for the endogenous B2R; from tissue; host or cells: human isolated umbilical vein (A2); slices of human umbilical cord (A8). The settings on record: agonist contraction; based on an extrapolated concentration-effect curve. How it is done:
Local ethics review boards approved the anonymous use of segments of human umbilical cords obtained following elective cesarean sections; informed consent was obtained from the mothers. Novel Cy-7 conjugated B2R ligands were assayed via the contraction of the human isolated umbilical vein [9, 10]. Cumulative concentration effect curves were constructed for the agonist version and its potency compared to that of BK. […] Results are presented as mean ± SEM. Radioligand binding data were fitted by nonlinear regression to a one-site competition equation using a least-square method (Prism 5.0, GraphPad Software Inc., San Diego, CA, USA) and IC50 values with their 95 % confidence limits were calculated from this procedure. The same computer program was used to draw concentration-effect curves (least square fitting of sigmoidal dose–response equation with variable slope) and to derive contractile EC50 values.

With `N=C(N)NCCC[C@@H](N)C(=O)N[C@@H](CCCNC(=N)N)C(=O)N1CCC[C@H]1C(=O)N1C[C@H](O)C[C@H]1C(=O)NCC(=O)N[C@H](C(=O)N[C@@H](CO)C(=O)N[C@@H](C(=O)N1[C@H](C(=O)N[C@@H](CCCNC(=N)N)C(=O)O)C[C@@H]2CCCC[C@@H]21)C1Cc2ccccc2C1)C1Cc2ccccc2C1` [Peptide B-9430, D-Arg-[Hyp^3,Igl^5,D-Igl^7,Oic^8]-BK], in test [1], the pA2 is listed as 7.7.

`N=C(N)NCCC[C@@H](N)C(=O)N[C@@H](CCCNC(=N)N)C(=O)N1CCC[C@H]1C(=O)N1C[C@H](O)C[C@H]1C(=O)NCC(=O)N[C@H](C(=O)N[C@@H](CO)C(=O)N1[C@H](C(=O)N[C@H](C(=O)N[C@@H](CCCNC(=N)N)C(=O)O)C2Cc3ccccc3C2)C[C@@H]2CCCC[C@@H]21)C1Cc2ccccc2C1` [Peptide B-9972, D-Arg-[Hyp^3,Igl^5,Oic^7,Igl^8]-BK, reference compound]: in test [2], the “loss of affinity vs. parent peptide” value is reported as “~ twofold”.

`CN1C(=CC=C2C=C(C=CC3=[N+](CCCCCC(=O)N[C@H](CCCNC(=N)N)C(=O)N[C@@H](CCCNC(=N)N)C(=O)N4CCC[C@H]4C(=O)N4C[C@H](O)C[C@H]4C(=O)NCC(=O)N[C@H](C(=O)N[C@@H](CO)C(=O)N[C@@H](C(=O)N4[C@H](C(=O)N[C@@H](CCCNC(=N)N)C(=O)O)C[C@@H]5CCCC[C@@H]54)C4Cc5ccccc5C4)C4Cc5ccccc5C4)c4ccccc4C3(C)C)CCC2)C(C)(C)c2ccccc21` [Peptide B-10665, Cy7-B-9430]: the “detection of endogenous B2R” value in test [3] is “could not detect endogenous B2R presence”. Further, the “loss of affinity vs. parent peptide” value in test [2] was “about equipotent to its parent peptide”. In addition, in test [4] (30 min, 37 °C, detached intact cells), the “binding detected by infrared fluorescence (cell labeling)” value is given as “specific binding that plateaued in the low nanomolar range”. Further, the “infrared labeling of cells” value in test [5] (30 min, 37 °C) was “labelled essentially plasma membranes in the infrared if and only if B2R-GFP was expressed”. Further, the “infrared staining of cell wells” value is reported as “stained the cell wells (from a 24-well plate) in a concentration-dependent manner” in [6] and “more so for the rat construction” in [8]. Besides, in [7], the “labeling of cells expressing β2-adrenoceptor-GFP Topaz” value was “Lack of labeling”.

As for `CN1C(=CC=C2C=C(C=CC3=[N+](CCCCCC(=O)N[C@H](CCCNC(=N)N)C(=O)N[C@@H](CCCNC(=N)N)C(=O)N4CCC[C@H]4C(=O)N4C[C@H](O)C[C@H]4C(=O)NCC(=O)N[C@H](C(=O)N[C@@H](CO)C(=O)N4[C@H](C(=O)N[C@H](C(=O)N[C@@H](CCCNC(=N)N)C(=O)O)C5Cc6ccccc6C5)C[C@@H]5CCCC[C@@H]54)C4Cc5ccccc5C4)c4ccccc4C3(C)C)CCC2)C(C)(C)c2ccccc21` [Peptide B-10666, Cy7-B-9972], the “loss of affinity vs. parent peptide” value in test [2] was ~ 35 fold. In test [9], the “loss of potency vs. BK” value is 4240 fold. Further, the “infrared labeling of cells” value in [5] (30 min, 37 °C) is given as “did not label untransfected cells or icatibant-pretreated receptor-expressing cells”. Also, in test [5] (30 min, 37 °C, live cells), the “endocytosis of B2R-GFP” value is given as “determined the endocytosis of a fraction of the plasma membrane receptors”. The “labeling of cells expressing β2-adrenoceptor-GFP Topaz” value in test [7] is “Lack of labeling”.

With `CC(C)NCC(O)c1ccc(O)c(O)c1` (centres unmarked) [isoproterenol, reference compound], the β2-adrenoceptor-GFP endocytosis entry in [7] is on record as “the receptors are then translocated into endosomes”.

With `CC(C)NCC(O)COc1cccc2ccccc12` (centres unmarked) [propranolol, reference compound], the β2-adrenoceptor-GFP endocytosis result in test [7] is “agonist-induced endocytosis was prevented”.

Take FTC-B-9430: the pA2 in test [1] is recorded as 6.96.

“fluorescein-5-thiocarbamoyl (FTC)-B-9972 [FTC-B-9972]”: in test [1] (contraction), the EC50 is 108 nM.

Take icatibant [reference compound]: the “competition of B-10665 binding” value in test [4] (icatibant applied 15 min before B-10665) is listed as “extensive competition”. Also, in test [5] (pretreatment of B2R-GFP-expressing cells), the “prevention of B-10665 (10 nM) plasma membrane fluorescence” value is “prevented”.
